Assays:
[1] = system: hepatic P450 monoxygenase activities; test: O-dealkylation of 7-methoxyresorufin in hepatic microsomes; conditions: CPRlox/- +CreALB mice, nmol metabolite per nmol P450
[2] = system: control, CPR heterozygous null and hepatic CPR null mice; test: Pentobarbital sleep time (regain of righting reflex); type: in vivo, mouse; conditions: 20 mg/kg i.p.
Protocol: c Time taken for regain of righting reflex in adult male mice of various genotypes following treatment with sodium pentobarbital at 20 mg/kg i.p. (n=3). Values are expressed as mean±SEM.
Pentobarbital sleep time—adult male CPR^lox/lox+Cre^ALB, CPR^lox/−+Cre^ALB, CPR^lox/− and CPR^+/++Cre^ALB mice (n=3) were given a single intraperitoneal (i.p.) dose of sodium pentobarbitone (Sagatal) at 20 mg/kg body weight. The time taken for the mice to lose, and subsequently to regain, their righting reflex was measured.
Cytochrome P450s involved in drug metabolism are distributed throughout the tissues of the body; it has been estimated that a significant proportion of drug metabolism (up to 30%) may be extra-hepatic. In order to test the level of extra-hepatic metabolism as well as the in vivo effects of hepatic CPR nulls on drug disposition, we measured barbiturate-induced sleeping times. This method has been used since the 1960s as an indicator of drug metabolising activity.

[3] = system: hepatic P450 monoxygenase activities; test: Microsomal hydroxylation of testosterone in liver microsomes; conditions: liver microsomes of hepatic CPR nulls of both sexes

**Q.** Which “reduction of O-dealkylation” value ([1]; females) does the source give for `COc1ccc2nc3ccc(=O)cc-3oc2c1` [7-methoxyresortifin] here?
**A.** 98.5%

**Q.** And the “reduction of O-dealkylation” value ([1]; males)?
**A.** 99.5%

**Q.** What does the source list for `CCCC(C)C1(CC)C(=O)NC(=O)NC1=O` (stereo not drawn) [pentobarbitone]?
**A.** average sleeping period ([2]; CPR heterozygous null mice (CPR+/-)): approximately 50 minutes; induction of sleep ([2]; control mice): failed to induce sleep; sleeping period ([2]; mice lacking hepatic CPR (CPRlox/- +CreALB or CPRlox/lox +CreALB)): > 2 h

**Q.** How did the 16-hydroxylation of testosterone [3] turn out when `C[C@]12CC[C@H]3[C@@H](CCC4=CC(=O)CC[C@@]43C)[C@@H]1CC[C@@H]2O` [testosterone] was run?
**A.** undetectable

Source: patent publication US7700822B2, “Modulation of cytochrome P450 reductase activity” (Cancer Research Technology Limited, priority 2002, dated 2010)
